Consider 31 compounds from patent US20230365584A1, “HETEROCYCLIC PERICONDENSED CDC7 KINASE INHIBITORS FOR THE TREATMENT OF CANCER” (SCHRÖDINGER, INC., priority 2020, published 2023).

Bounds are passed on as bounds.

Chain of Full length human CDC7 protein co-expressed with DBF4 (O00311 whole entry): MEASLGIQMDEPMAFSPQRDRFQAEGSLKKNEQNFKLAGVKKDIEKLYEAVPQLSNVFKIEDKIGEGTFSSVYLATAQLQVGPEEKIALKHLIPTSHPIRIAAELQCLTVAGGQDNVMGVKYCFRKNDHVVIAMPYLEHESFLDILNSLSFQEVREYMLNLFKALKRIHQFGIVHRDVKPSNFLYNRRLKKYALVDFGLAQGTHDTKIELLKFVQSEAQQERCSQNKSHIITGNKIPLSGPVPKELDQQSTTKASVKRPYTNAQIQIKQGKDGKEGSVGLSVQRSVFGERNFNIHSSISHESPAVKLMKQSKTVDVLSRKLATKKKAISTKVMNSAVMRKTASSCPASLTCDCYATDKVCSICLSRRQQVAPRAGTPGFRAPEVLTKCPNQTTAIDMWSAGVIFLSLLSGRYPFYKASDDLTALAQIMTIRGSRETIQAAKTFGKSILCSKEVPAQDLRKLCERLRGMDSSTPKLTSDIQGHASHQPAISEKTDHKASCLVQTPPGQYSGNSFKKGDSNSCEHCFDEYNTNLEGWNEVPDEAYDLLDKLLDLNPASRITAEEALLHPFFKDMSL
Chain of Full length human CDC7 protein co-expressed with DBF4 (Q9UBU7 whole entry partner): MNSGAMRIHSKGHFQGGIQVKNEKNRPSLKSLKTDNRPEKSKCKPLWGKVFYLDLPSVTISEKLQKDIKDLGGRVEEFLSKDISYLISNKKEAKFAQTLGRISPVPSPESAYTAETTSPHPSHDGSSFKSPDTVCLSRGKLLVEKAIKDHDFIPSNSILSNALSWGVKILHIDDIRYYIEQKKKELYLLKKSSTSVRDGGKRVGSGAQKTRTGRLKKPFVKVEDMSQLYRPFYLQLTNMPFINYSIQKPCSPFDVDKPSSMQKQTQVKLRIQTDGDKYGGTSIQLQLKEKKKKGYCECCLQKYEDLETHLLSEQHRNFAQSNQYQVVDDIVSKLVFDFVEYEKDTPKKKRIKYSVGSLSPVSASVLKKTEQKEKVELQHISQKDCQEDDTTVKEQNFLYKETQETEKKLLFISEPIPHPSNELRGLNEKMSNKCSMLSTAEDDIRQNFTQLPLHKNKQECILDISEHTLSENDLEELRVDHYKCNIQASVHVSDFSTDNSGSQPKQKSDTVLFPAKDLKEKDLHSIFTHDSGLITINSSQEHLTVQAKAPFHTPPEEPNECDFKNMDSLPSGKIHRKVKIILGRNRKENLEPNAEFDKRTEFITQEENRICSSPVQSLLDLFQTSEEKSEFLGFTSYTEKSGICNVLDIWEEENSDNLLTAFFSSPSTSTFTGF

For one assay, the target named is Full length human CDC7 protein co-expressed with DBF4 (Homo sapiens (Human), UniProt O00311). The assay is described as follows: CDC7 kinase biochemical assay (ADP-Glo, PDKtide substrate). The settings on record: 0.1 nM CDC7/DBF4, 1 uM ATP, 10 uM PDKtide, 4 h. The method, then: CDC7 Kinase Biochemical Assay Protocol:
Full length human CDC7 protein co-expressed with DBF4 was purchased from SignalChem (China). CDC7 kinase activity was determined with PDKtide (SignalChem) as a substrate and by measuring ADP production using the ADP-Glo™ Kinase Assay kit (Promega) following the manufacturers instructions. The kinase reaction was performed using the following conditions: Buffer: 40 mM Tris pH 7.5, 20 mM MgCl2, 0.1 mg/ml BSA and 50 uM DTT. Final reaction mix contained 0.1 nM CDC7/DBF4, 1 uM ATP and 10 uM PDKtide. The kinase reaction time was 4 h. The ADP-Glo signal was measured using an EnVision plate reader (PerkinELmer).
Percent inhibition of CDC7 kinase activity was calculated based on the following formula:
[formula] • Ssample: the signal of compounds • SHigh Ctrl: the signal of high control (DMSO) • SLow Ctrl: the signal of low control (positive control CDC7 inhibitor)
(In general: ADP-Glo first removes unused ATP, then detects ADP through luciferase.)
In turn, `Cc1[nH]c(=O)c2sc(-c3ccncc3)c3c2c1CCCO3` [Example 1, 5-methyl-1-(pyridin-4-yl)-4,6,7,8-tetrahydro-3H-9-oxa-2-thia-4-azabenzo[cd]azulen-3-one] showed an IC50 below 1 nM.

The compound `Cc1[nH]c(=O)c2sc(-c3ccncc3)c3c2c1C[C@H](C)O3` (single isomer, unassigned) [Example 8] showed a half-inhibitory concentration (IC50) below 1 nM.

Turning to `CC[C@@](C)(O)c1[nH]c(=O)c2sc(-c3cn[nH]c3)c3c2c1CCCO3` (single isomer, unassigned) [Example 58], the IC50 is below 1 nM.

`Nc1[nH]c(=O)c2sc(-c3cn[nH]c3)c3c2c1CCCO3` [Example 54, 7-amino-2-(1H-pyrazol-4-yl)-12-oxa-3-thia-6-azatricyclo[6.4.1.0^4,13]trideca-1,4(13),7-trien-5-one] gave an IC50 below 1 nM.

For the compound `CC(c1[nH]c(=O)c2sc(-c3cn[nH]c3)c3c2c1CCCO3)n1nccn1` (racemic) [Example 48, 2-(1H-pyrazol-4-yl)-7-[1-(triazol-2-yl)ethyl]-12-oxa-3-thia-6-azatricyclo[6.4.1.0^4,13] trideca-1,4(13),7-trien-5-one], the IC50 is below 1 nM.

`N#CCc1[nH]c(=O)c2sc(-c3cn[nH]c3)c3c2c1CCCO3` [Example 75, 2-(3-oxo-1-(1H-pyrazol-4-yl)-4,6,7,8-tetrahydro-3H-9-oxa-2-thia-4-azabenzo[cd]azulen-5-yl)acetonitrile]: the IC50 is below 1 nM.

The compound `O=c1[nH]c(C2(O)CCCC2)c2c3c(c(-c4cn[nH]c4)sc13)OCCC2` [Example 85, 5-(1-hydroxycyclopentyl)-1-(1H-pyrazol-4-yl)-4,6,7,8-tetrahydro-3H-9-oxa-2-thia-4-azabenzo[cd]azulen-3-one] had an IC50 below 1 nM.

Turning to `C[C@@H]1Cc2c(CN3CC[C@@H]3C)[nH]c(=O)c3sc(-c4cn[nH]c4)c(c23)O1` (single isomer, unassigned) [Example 82], the half-inhibitory concentration (IC50) is below 1 nM.

For the compound `C[C@@H]1Cc2c(C(C)(C)O)[nH]c(=O)c3sc(-c4cn[nH]c4)c(c23)O1` (single isomer, unassigned) [Example 62], the concentration for half-maximal inhibition (IC50) was below 1 nM.

In turn, `CC(C)(C)OC(=O)NCc1[nH]c(=O)c2sc(-c3ccncc3)c3c2c1CCCO3` [Example 14, tert-butyl ((3-oxo-1-(pyridin-4-yl)-4,6,7,8-tetrahydro-3H-9-oxa-2-thia-4-azabenzo[cd]azulen-5-yl)methyl)carbamate] showed an IC50 of 1 to 10 nM.

Regarding `COC[C@H](OC)c1[nH]c(=O)c2sc(-c3cn[nH]c3)c3c2c1CCCO3` (single isomer, unassigned) [Example 40], the IC50 is below 1 nM.

`O=c1[nH]c(Cn2cccn2)c2c3c(c(-c4cn[nH]c4)sc13)OCCC2` [Example 18, 2-(1H-pyrazol-4-yl)-7-(pyrazol-1-ylmethyl)-12-oxa-3-thia-6-azatricyclo[6.4.1.04,13]trideca-1,4(13),7-trien-5-one]: the IC50 was below 1 nM.

Consider `COc1ccc(CNCc2[nH]c(=O)c3sc(-c4ccncc4)c4c3c2CCCO4)cc1` [Example 16, 5-(((4-methoxybenzyl)amino)methyl)-1-(pyridin-4-yl)-4,6,7,8-tetrahydro-3H-9-oxa-2-thia-4-azabenzo[cd]azulen-3-one], for which the IC50 was at least 10 nM.

Take `CC1Cc2c(CN3CC(F)C3)[nH]c(=O)c3sc(-c4cn[nH]c4)c(c23)O1` (stereo in doubt) [Example 67, (R)-6-((3-fluoroazetidin-1-yl)methyl)-4-methyl-2-(1H-pyrazol-4-yl)-5,7-dihydro-3-oxa-1-thia-7-azaacenaphthylen-8(4H)-one]: the IC50 is below 1 nM.

For the compound `O=C(c1[nH]c(=O)c2sc(-c3cn[nH]c3)c3c2c1CCCO3)N1CCOCC1` [Example 52, 7-(morpholine-4-carbonyl)-2-(1H-pyrazol-4-yl)-12-oxa-3-thia-6-azatricyclo[6.4.1.0^4,13]-trideca-1,4(13),7-trien-5-one], the IC50 fell in the range of 1 to 10 nM.

For `CC(C)(O)Cc1[nH]c(=O)c2sc(-c3cn[nH]c3)c3c2c1CCCO3` [Example 77, 5-(2-hydroxy-2-methylpropyl)-1-(1H-pyrazol-4-yl)-4,6,7,8-tetrahydro-3H-9-oxa-2-thia-4-azabenzo[cd]azulen-3-one], the IC50 was below 1 nM.

`C[C@@H]1Cc2c(CN3CCC3)[nH]c(=O)c3sc(-c4cn[nH]c4)c(c23)O1` (single isomer, unassigned) [Example 64] returned an IC50 below 1 nM.

Take `COC[C@@H](c1[nH]c(=O)c2sc(-c3cn[nH]c3)c3c2c1CCCO3)N1CCC(F)(F)C1` (single isomer, unassigned) [Example 38]: the 50% inhibitory concentration (IC50) lay in the range of 1 to 10 nM.

As for `C[C@@H]1Cc2c(CN3CC[C@H]3C)[nH]c(=O)c3sc(-c4cn[nH]c4)c(c23)O1` (single isomer, unassigned) [Example 81], the 50% inhibitory concentration (IC50) is below 1 nM.

Take `CC[C@@](C)(O)c1[nH]c(=O)c2sc(-c3c[nH]nc3C)c3c2c1CCCO3` (single isomer, unassigned) [Example 74]: the concentration for half-maximal inhibition (IC50) was at least 10 nM.

`CC[C@](C)(O)c1[nH]c(=O)c2sc(-c3c[nH]nc3C)c3c2c1CCCO3` (single isomer, unassigned) [Example 73] returned a half-maximal inhibitory concentration (IC50) of at least 10 nM.

The compound `COC[C@@H](c1[nH]c(=O)c2sc(-c3cn[nH]c3)c3c2c1CCCO3)n1cccn1` (single isomer, unassigned) [Example 36] gave an IC50 below 1 nM.

Compound `CC(C)(O)c1[nH]c(=O)c2sc(-c3cn[nH]c3)c3c2c1CC(F)(F)CO3` [Example 45, 10,10-difluoro-7-(1-hydroxy-1-methyl-ethyl)-2-(1H-pyrazol-4-yl)-12-oxa-3-thia-6-azatricyclo[6.4.1.0^4,13]trideca-1,4(13),7-trien-5-one] registered an IC50 below 1 nM.

In the case of `CC1Cc2c(CN3CC[C@H](F)C3)[nH]c(=O)c3sc(-c4cn[nH]c4)c(c23)O1` (stereo in doubt) [Example 70, (R)-6-(((S)-3-fluoropyrrolidin-1-yl)methyl)-4-methyl-2-(1H-pyrazol-4-yl)-5,7-dihydro-3-oxa-1-thia-7-azaacenaphthylen-8(4H)-one], the IC50 is below 1 nM.

Regarding `O=C(c1[nH]c(=O)c2sc(-c3cn[nH]c3)c3c2c1CCCO3)N1CC(O)C1` [Example 53, 5-(3-hydroxyazetidine-1-carbonyl)-1-(1H-pyrazol-4-yl)-4,6,7,8-tetrahydro-3H-9-oxa-2-thia-4-azabenzo[cd]azulen-3-one], the IC50 is 1 to 10 nM.

For the compound `C[C@](O)(c1[nH]c(=O)c2sc(-c3cn[nH]c3)c3c2c1CCCO3)C1CC1` (single isomer, unassigned) [Example 60], the IC50 is below 1 nM.

On to `CC[C@@](C)(O)c1[nH]c(=O)c2sc(-c3ccncc3)c3c2c1CCCO3` (single isomer, unassigned) [Example 72], for which the IC50 is below 1 nM.

`Cc1[nH]c(=O)c2sc(-c3ccncc3)c3c2c1CCO3` [Example 2, 6-methyl-2-(pyridin-4-yl)-5,7-dihydro-3-oxa-1-thia-7-azaacenaphthylen-8(4H)-one] yielded an IC50 below 1 nM.

Turning to `CC1Cc2c(CN3CC(F)C3)[nH]c(=O)c3sc(-c4cn[nH]c4)c(c23)O1` (stereo in doubt) [Example 68, (S)-6-((3-fluoroazetidin-1-yl)methyl)-4-methyl-2-(1H-pyrazol-4-yl)-5,7-dihydro-3-oxa-1-thia-7-azaacenaphthylen-8(4H)-one], the IC50 is below 1 nM.

The compound `O=c1[nH]c(Cn2cccn2)c2c3c(c(-c4ccncc4)sc13)OCCC2` [Example 21, 7-(pyrazol-1-ylmethyl)-2-(4-pyridyl)-12-oxa-3-thia-6-azatricyclo[6.4.1.0^4,13]trideca-1,4(13),7-trien-5-one] registered a concentration for half-maximal inhibition (IC50) below 1 nM.

`CC1Cc2c(CN3CC[C@H](F)C3)[nH]c(=O)c3sc(-c4cn[nH]c4)c(c23)O1` (stereo in doubt) [Example 69, (S)-6-(((S)-3-fluoropyrrolidin-1-yl)methyl)-4-methyl-2-(1H-pyrazol-4-yl)-5,7-dihydro-3-oxa-1-thia-7-azaacenaphthylen-8(4H)-one]: the IC50 was below 1 nM.

The next assay deals with phosphorylation of MCM2 S53 in colo205 cells. The assay is described as follows: Phosphorylated MCM2 MSD electrochemiluminescence assay. It is filed as cell-based. To be noted: Homo sapiens, COLO 205, 20 h incubation, read-out: pMCM2-S53 MSD Colo205 IC50. The method, then:
Phosphorylated MCM2 MSD Electrochemiluminescence Assay
The effect of CDC7 inhibitors on cellular phosphorylation of the CDC7 substrate MCM2 was determined using the following protocol:
A total of 40,000 colo205 cells in 100 uL culture medium (1640 medium+10% Fetal bovine serum+1% Penicillin-Streptomycin) were plated in 96-well cell culture plates and allowed to attach for 6 hours. 3-fold serial dilutions of test compounds were prepared in completed PBS at 25×final concentration and 4 uL of each were added to the cells and incubated for 20 hours at 37° C., 5% CO2. Each concentration was tested in duplicate. After the 20 h incubation, cells were washed with 150 uL PBS and lysed with 40 uL MSD lysis buffer (obtained from Meso Scale Diagnostics) supplied with 1×complete ULTRA cocktail inhibitor (obtained from Roche). To detect phosphorylation of MCM2 S53, 30 μL of capture antibody solution (obtained from Abnova, catalog number H00004171-MO1, 1:500) was added to each well of MULTI-ARRAY 96-well High Bind Plate, and incubated overnight. The antibody solution was removed, wells blocked with BSA solution and plates washed, followed by addition of 30 ul of cell lysate per well. After 2 h incubation, plates were washed. 30 μL of 1×detection antibody solution (obtained from Abcam, catalog number ab109133, 1:1000) was then added to each well and incubate for 1 hour. Plates were washed and 30 μL of 1×secondary antibody solution (obtained from MSD, catalog number R32AB-1, 1:5000) was added to each well and incubate for 1 hour. Plates were washed and 150 µL of 1×Read Buffer T was added to each well of the MSD plate. The electrochemiluminescence signal was measured on a MESO SECTOR S600 plate reader. The percentage of remaining phosphorylated MCM2 signal was calculated following the equation below.
[formula] • HC (high control): Cells treated with DMSO • Cpds: Cells treated with test compounds • LC (low control): Cells treated with positive control CDC7 inhibitor
With `Cc1[nH]c(=O)c2sc(-c3ccncc3)c3c2c1CCCO3` [Example 1, 5-methyl-1-(pyridin-4-yl)-4,6,7,8-tetrahydro-3H-9-oxa-2-thia-4-azabenzo[cd]azulen-3-one], the IC50 was in the range of 100 to 1000 nM.

As to `Cc1[nH]c(=O)c2sc(-c3ccncc3)c3c2c1C[C@H](C)O3` (single isomer, unassigned) [Example 8], the IC50 was in the range of 100 to 1000 nM.

Take `CC[C@@](C)(O)c1[nH]c(=O)c2sc(-c3cn[nH]c3)c3c2c1CCCO3` (single isomer, unassigned) [Example 58]: the IC50 is below 100 nM.

Turning to `Nc1[nH]c(=O)c2sc(-c3cn[nH]c3)c3c2c1CCCO3` [Example 54, 7-amino-2-(1H-pyrazol-4-yl)-12-oxa-3-thia-6-azatricyclo[6.4.1.0^4,13]trideca-1,4(13),7-trien-5-one], the IC50 is at least 1000 nM.

For orientation: IC50 means the concentration needed to halve the response being measured.
